Columns and labels:
[1] = target: T1, CYP2C9 (Homo sapiens, UniProt P11712); experiment: P450-Glo screening system, CYP inhibition; assay type: biochemical; conditions: recombinant human CYP, luciferin-H
T1 construct: purchased Promega
From the text: (§1) The P450-Glo™ screening systems (Promega; Madison, Wisconsin, USA) were used in this study to explore the inhibitory properties of MDP on the major CYP isoforms involved in xenobiotic metabolism (CYP1A2, CYP2C9, CYP2C19, CYP2D6, and CYP3A4). HepaRG cells were not utilized in this assay to avoid potential cross reactivity since all CYP enzymes are expressed in this cell line. Therefore, this inhibition study relied on recombinant human CYP enzymes integrated in membrane preparation. The principle of the assay is based on the conversion of a luminogenic substrate (100 µM luciferin-ME for CYP1A2, 100 µM luciferin-H for CYP2C9, 50 µM luciferin-H EGE for CYP2C19, 30 µM luciferin-ME EGE for CYP2D6, and 100 µM luciferin-PPXE for CYP3A4) to luciferin by the respective enzyme. The assay was conducted according to the instructions of the supplier. Briefly, eight non-cytotoxic concentrations of MDP or a CYP selective inhibitor were preincubated for 10 min at 37 °C together with the luminogenic substrate, potassium phosphate buffer, and luciferin-free water, and the test compounds were added to white 96-well Costar® plates. After the preincubation, 25 µL of NADPH regeneration system (2.6 mM NADP + , 6.6 mM glucose-6-phosphate, 6.6 mM MgCl2, and 0.8 U/mL glucose-6-phosphate dehydrogenase) was added to each well to initiate CYP reactions. The plates were briefly shaken and taped before they were incubated at 37 °C for 10–30 min depending on the CYP enzyme under investigation. Luminescence of the luciferin product was initiated by adding 50 µL of the luciferin detection reagent. Subsequently, the plates were briefly shaken and then incubated for 20 min at room temperature in order to stabilize the luminescent signal. The luminescence was measured on the Infinite M200 PRO plate reader (Tecan; Männedorf, Switzerland). The measurements were corrected by subtracting the minus P450 control signals from each measurement and represented as changes in luminescence signals (ΔRLU). The ΔRLU values of MDP were compared with the ΔRLU values of the untreated samples and represented as relative changes in luminescence in relation to the control (%). Three independent experiments with three technical replicates were conducted (n = 3). Means and standard deviations for each treatment were calculated before calculating the IC50 values of MDP for each CYP enzyme.
(§2) A linear mixed-effects ANOVA (α = 0.05) described by Pinheiro and Bates ([2000]) followed by a post-hoc Dunnett test for multiple comparisons of treatment groups versus the control was used for statistical analysis of data from cytotoxicity assay, AdipoRed assay, CYP450 inhibition assay as well as mixture effects. R studio (ver. 4.4.1) was used to determine the effective concentration at relative triglyceride induction fold of 1.5 for each test compound.

[2] = target: T2, CYP1A2 (Homo sapiens, UniProt P05177); experiment: P450-Glo screening system, CYP inhibition; assay type: biochemical; conditions: recombinant human CYP, luciferin-ME
T2 construct: purchased Promega
T2 sequence (P05177 1-516): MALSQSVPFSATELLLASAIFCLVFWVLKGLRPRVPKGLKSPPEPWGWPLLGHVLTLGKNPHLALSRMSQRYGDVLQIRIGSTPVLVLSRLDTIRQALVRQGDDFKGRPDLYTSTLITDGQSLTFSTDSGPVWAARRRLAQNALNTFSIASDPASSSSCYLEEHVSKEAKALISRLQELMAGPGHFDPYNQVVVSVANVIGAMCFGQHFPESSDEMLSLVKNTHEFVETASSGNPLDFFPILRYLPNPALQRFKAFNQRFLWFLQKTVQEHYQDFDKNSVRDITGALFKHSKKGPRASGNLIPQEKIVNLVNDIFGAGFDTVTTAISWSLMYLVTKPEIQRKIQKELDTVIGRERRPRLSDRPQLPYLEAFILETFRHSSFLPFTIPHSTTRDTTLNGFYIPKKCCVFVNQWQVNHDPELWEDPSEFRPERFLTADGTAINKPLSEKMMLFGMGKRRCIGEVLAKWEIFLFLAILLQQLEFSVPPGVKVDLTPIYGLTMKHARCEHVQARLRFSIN
From the text: as §1, §2

[3] = target: T3, CYP3A4 (Homo sapiens, UniProt P08684); experiment: P450-Glo screening system, CYP inhibition; assay type: biochemical; conditions: recombinant human CYP, luciferin-PPXE
T3 construct: purchased Promega
From the text: as §1, §2

[4] = target: T4, CYP2D6 (Homo sapiens, UniProt P10635); experiment: P450-Glo screening system, CYP inhibition; assay type: biochemical; conditions: recombinant human CYP, luciferin-ME EGE
T4 construct: purchased Promega
From the text: as §1, §2

[5] = target: T5, CYP2C19 (Homo sapiens, UniProt P33261); experiment: P450-Glo screening system, CYP inhibition; assay type: biochemical; conditions: recombinant human CYP, luciferin-H EGE
T5 construct: purchased Promega
From the text: as §1, §2

[6] = system: HepaRG cells; experiment: AdipoRed triglyceride accumulation assay; assay type: cell-based, human; conditions: for Relative triglyceride accumulation: related to medium control
Procedure: Different elements of the liver steatosis AOP were evaluated in this study. Transcriptomics was employed as a tool to investigate the expression of liver steatosis-related genes that occur either as MIE (genes related to NR activation) or molecular and cellular KEs. In addition to gene expression, lipid accumulation in HepaRG cells was conducted to cover molecular KEs. Considering that upstream MIEs occur earlier than subsequent downstream KEs (Alarcan et al. [2021]), we applied different time points (24 h for transcriptomics and 72 h for lipid accumulation) to reflect the temporal relationships between biological events.
HepaRG cells were treated in 96-well plates for 72 h with eight different concentrations of the above-mentioned test compounds, with the highest concentration of each being the highest non-cytotoxic concentration. The synthetic LXR and FXR agonist, T0901317, was used as a positive control at a concentration of 10 µM. After the 72-h incubation, cells were washed with 200 µL phosphate-buffered saline (PBS), and then 200 µL PBS containing 5 µg/mL Hoechst 33,342 (Thermo Fisher Scientific; Waltham, Massachusetts, USA) was added to each well. Thereafter, 5 µL of the AdipoRed reagent was added to each well, and the plates were incubated at 37 °C for 10 min. Subsequently, the fluorescence of AdipoRed was measured at λexc = 485 nm/λemi = 572 nm, and Hoechst 33,342 was measured at λexc = 350 nm/λemi = 451 nm on the Infinite M200 PRO plate reader (Tecan; Männedorf, Switzerland). AdipoRed signals were normalized to Hoechst 33,342 signals to compensate for variations in cell number. Relative triglyceride levels were referred to untreated cells. Each concentration was measured in three technical replicates. Three independent biological replicates were performed (n = 3) and means as well as SD were calculated.
as §2

T1 sequence (P11712 whole entry): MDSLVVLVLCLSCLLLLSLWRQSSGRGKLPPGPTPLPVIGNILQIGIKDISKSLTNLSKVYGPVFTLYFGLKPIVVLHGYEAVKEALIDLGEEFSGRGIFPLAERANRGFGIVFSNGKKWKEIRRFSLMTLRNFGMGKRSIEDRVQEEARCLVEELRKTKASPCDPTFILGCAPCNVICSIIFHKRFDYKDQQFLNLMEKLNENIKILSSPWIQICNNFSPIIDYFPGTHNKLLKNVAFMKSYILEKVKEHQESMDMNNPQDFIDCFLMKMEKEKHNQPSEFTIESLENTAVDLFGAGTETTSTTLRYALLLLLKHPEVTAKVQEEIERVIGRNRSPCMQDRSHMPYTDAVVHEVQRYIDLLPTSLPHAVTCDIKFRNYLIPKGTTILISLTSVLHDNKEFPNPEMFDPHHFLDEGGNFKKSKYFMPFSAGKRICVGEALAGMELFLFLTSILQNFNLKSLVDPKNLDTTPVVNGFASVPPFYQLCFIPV
T3 sequence (P08684 whole entry): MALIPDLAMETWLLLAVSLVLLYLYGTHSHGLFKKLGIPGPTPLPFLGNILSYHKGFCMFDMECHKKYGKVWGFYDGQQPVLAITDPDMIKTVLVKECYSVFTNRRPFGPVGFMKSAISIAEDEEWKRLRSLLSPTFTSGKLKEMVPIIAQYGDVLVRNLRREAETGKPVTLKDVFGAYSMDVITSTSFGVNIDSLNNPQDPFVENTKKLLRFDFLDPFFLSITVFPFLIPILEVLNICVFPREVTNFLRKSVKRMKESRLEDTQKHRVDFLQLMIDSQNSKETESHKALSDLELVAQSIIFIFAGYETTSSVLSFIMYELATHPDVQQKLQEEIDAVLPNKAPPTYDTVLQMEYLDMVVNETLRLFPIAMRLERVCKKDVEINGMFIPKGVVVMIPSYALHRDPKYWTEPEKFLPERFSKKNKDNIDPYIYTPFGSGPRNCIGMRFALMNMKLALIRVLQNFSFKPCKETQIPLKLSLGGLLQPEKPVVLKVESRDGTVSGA
T4 sequence (P10635 whole entry): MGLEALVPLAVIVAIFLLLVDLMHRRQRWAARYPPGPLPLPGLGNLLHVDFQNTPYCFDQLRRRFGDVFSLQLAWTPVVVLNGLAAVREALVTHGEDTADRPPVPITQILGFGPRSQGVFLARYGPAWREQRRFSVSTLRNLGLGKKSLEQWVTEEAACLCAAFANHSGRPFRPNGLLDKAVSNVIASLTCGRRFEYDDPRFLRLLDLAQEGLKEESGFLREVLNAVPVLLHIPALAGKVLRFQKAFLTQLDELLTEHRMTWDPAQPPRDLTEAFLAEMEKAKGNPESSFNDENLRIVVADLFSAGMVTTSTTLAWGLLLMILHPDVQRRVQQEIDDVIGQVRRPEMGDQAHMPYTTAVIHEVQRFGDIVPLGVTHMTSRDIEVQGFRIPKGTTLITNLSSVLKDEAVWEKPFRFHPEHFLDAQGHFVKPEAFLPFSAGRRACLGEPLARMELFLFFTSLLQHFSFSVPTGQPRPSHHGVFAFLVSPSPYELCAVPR
T5 sequence (P33261 whole entry): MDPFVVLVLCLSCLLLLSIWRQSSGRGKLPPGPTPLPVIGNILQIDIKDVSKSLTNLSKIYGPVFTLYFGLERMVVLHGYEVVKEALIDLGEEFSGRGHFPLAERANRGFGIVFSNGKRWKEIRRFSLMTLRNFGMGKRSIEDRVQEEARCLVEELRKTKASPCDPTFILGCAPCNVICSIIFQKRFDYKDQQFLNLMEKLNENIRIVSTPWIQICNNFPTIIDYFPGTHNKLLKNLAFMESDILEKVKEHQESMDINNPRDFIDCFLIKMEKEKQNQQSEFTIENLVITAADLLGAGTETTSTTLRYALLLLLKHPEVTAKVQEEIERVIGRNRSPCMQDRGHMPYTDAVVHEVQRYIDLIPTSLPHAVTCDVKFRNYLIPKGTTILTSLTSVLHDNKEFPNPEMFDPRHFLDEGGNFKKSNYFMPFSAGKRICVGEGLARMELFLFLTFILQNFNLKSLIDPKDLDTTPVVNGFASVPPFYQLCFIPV

`C#CCOc1ccc(CCNC(=O)C(OCC#C)c2ccc(Cl)cc2)cc1OC` (stereo not shown) [MDP, mandipropamid] was tested, and the IC50 [1] was 1180 nM, the “IC50 CYP2C9” value [1] was 0.488 µg/mL and the IC50 [2] was 28700 nM. For the same molecule, the “IC50 CYP1A2” value [2] was 11.8 µg/mL, the IC50 [3] was 1320 nM and the “IC50 CYP3A4” value [3] was 0.544 µg/mL. The IC50 [4] was 18100 nM, the “IC50 CYP2D6” value [4] was 7.47 µg/mL and the IC50 [5] was 824 nM. For the same molecule, the “IC50 CYP2C19” value [5] was 0.340 µg/mL, the Relative triglyceride accumulation ([6]; 5.00 mg/L, 72 h) was 1.2 and the Relative triglyceride accumulation ([6]; 6.00 mg/L, 72 h) was 1.1. It also gave a Relative triglyceride accumulation ([6]; 8.00 mg/L, 72 h) of 1.3, a Relative triglyceride accumulation ([6]; 10.0 mg/L, 72 h) of 1.3 and a Relative triglyceride accumulation ([6]; 12.0 mg/L, 72 h) of 1.2. The Relative triglyceride accumulation ([6]; 15.0 mg/L, 72 h) was 1.6, the Relative triglyceride accumulation ([6]; 19.0 mg/L, 72 h) was 1.8 and the “EC1.5-fold (effective concentration at 1.5 relative triglyceride induction fold)” value ([6]; HepaRG cells, 72-h incubation) was 14.4 mg/L. The EC1.5-fold ([6]; HepaRG cells, 72 h) was “≈ 35 µM”.

— publication PMC12367838, “Relevance of kinetic interactions and co-formulants for plant protection product liver toxicity in vitro” (Archives of Toxicology, 2025)
